Each structure is given as a SMILES string. Where two headings read alike, the source gives them in different places. A value given as a limit tells only on which side of the number the result lay.

26 compounds from US8119624B2, “Fused phenyl amido heterocyclic compounds” (Pfizer Inc., priority 2006, dated 2012) can be followed below.

This test concerns the target T1, Full-length glucokinase (beta cell isoform) (Homo sapiens, UniProt P35557).
T1 construct: Full-length glucokinase (beta cell isoform) was His-tagged at N-terminus; His tag (N); made in house
T1 sequence (P35557 1-465): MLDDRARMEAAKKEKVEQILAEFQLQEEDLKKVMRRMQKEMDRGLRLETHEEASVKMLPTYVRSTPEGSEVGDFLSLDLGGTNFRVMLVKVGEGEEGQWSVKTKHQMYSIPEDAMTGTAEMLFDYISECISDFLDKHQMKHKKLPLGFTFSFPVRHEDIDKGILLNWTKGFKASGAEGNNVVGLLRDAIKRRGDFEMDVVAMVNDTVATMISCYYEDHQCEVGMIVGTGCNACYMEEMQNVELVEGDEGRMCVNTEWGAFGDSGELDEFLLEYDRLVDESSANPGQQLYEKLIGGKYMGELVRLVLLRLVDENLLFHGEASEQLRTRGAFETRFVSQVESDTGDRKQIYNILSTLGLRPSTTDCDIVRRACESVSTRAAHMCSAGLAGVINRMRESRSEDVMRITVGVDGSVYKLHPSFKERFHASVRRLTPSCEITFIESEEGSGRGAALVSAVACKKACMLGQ
In words: Glucokinase biochemical assay (PK/LDH-coupled, NADH depletion at 340 nm): % activation, EC50, % max activation. The settings on record: 5 mM glucose; for activation at 10 µM: read-out: % Activation at 10 uM; for EC50: read-out: EC50; for Emax: fitted maximum activation, read-out: % Max Activation. Summed up: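 Activation expressed as (Va/Vo−1)×100, where initial rates with and without compound come from NADH depletion at 340 nm over 200–900 s. Enzyme is His-tagged human beta-cell GK, full length, run at room temperature in HEPES buffer with 1 mM ATP and 5 mM glucose. DMSO 1%.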

[1] abbreviates: 10 uM compound, % Activation=(Va/Vo−1)×100.
Where [2] appears, read: compound at 10 uM, 1 mM ATP, room temperature.

Consider `Cc1nc2cc(C(=O)Nc3ccn(C)n3)cc(Oc3ccc(S(C)(=O)=O)cc3)c2o1` [Example 368, 2-Methyl-N-(1-methyl-1H-pyrazol-3-yl)-7-[4-(methylsulfonyl)-phenoxy]-1,3-benzoxazole-5-carboxamide], for which the activation at 10 µM under setting [1] stood at 48.2%. Moreover, the EC50 (GK activation) is over 10 µM.

Consider `Cc1ccc(NC(=O)c2cc(Oc3ccc(S(C)(=O)=O)cc3)c3oc(C)nc3c2)nc1` [Example 369, 2-Methyl-N-(5-methylpyridin-2-yl)-7-[4-(methylsulfonyl)-phenoxy]-1,3-benzoxazole-5-carboxamide], for which the Emax was 66%. Moreover, the activation at 10 µM under setting [1] came to 66.1%. Where the note is “GK activation”, the EC50 worked out at 3.7 µM.

For `Cc1ccc(NC(=O)c2cc(Oc3ccc(C(=O)N(C)C)cc3)c3oc(C)nc3c2)nc1` [Example 370, 7-{4-[(Dimethylamino)carbonyl]phenoxy}-2-methyl-N-(5-methylpyridin-2-yl)-1,3-benzoxazole-5-carboxamide], the Emax worked out at 3.5%. Besides, the activation at 10 µM under setting [1] is 14.9%. Besides, the EC50 (GK activation) was found to be 0.17 µM.

Regarding `Cc1ccc(NC(=O)c2cc(Oc3ccc(S(C)(=O)=O)cc3)c3ncsc3c2)nc1` [Example 371, N-(5-Methylpyridin-2-yl)-4-[4-(methylsulfonyl)phenoxy]-1,3-benzothiazole-6-carboxamide], the activation at 10 µM under setting [1] is 35.5%.

Regarding `CS(=O)(=O)c1ccc(Oc2cc(C(=O)Nc3ccccn3)cc3scnc23)cc1` [Example 372, 4-[4-(Methylsulfonyl)phenoxy]-N-pyridin-2-yl-1,3-benzothiazole-6-carboxamide], under setting [1], the activation at 10 µM was 29.3%.

`COc1cc(C(=O)Nc2ccc(C)cn2)c2nc(C)[nH]c2c1` [Example 373, 6-Methoxy-2-methyl-1H-benzoimidazole-4-carboxylic acid(5-methyl-pyridin-2-yl)-amide]: the activation at 10 µM under setting [1] was -1.1%.

`Cc1ccc(NC(=O)c2cc(OCc3ccccc3Cl)c3c(c2)OC(C)(C)CC3)nc1` [Example 374, 5-(2-Chloro-benzyloxy)-2,2-dimethyl-chroman-7-carboxylic acid(5-methyl-pyridin-2-yl)-amide]: under setting [1], the “% Activation at 10 uM” value stood at 17.7%.

`Cc1ccc(NC(=O)c2cc(OCc3ccccc3Cl)cc3c2CCC(C)(C)O3)nc1` [Example 375, 7-(2-Chloro-benzyloxy)-2,2-dimethyl-chroman-5-carboxylic acid(5-methyl-pyridin-2-yl)-amide]: under setting [1], the “% Activation at 10 uM” value came out at 5.6%.

`Cc1ccc(NC(=O)c2cc(Oc3ccc(S(C)(=O)=O)cc3)c3c(c2)C(=O)N(C)C3)nc1` [Example 376, 2-Methyl-N-(5-methylpyridin-2-yl)-7-(4-(methylsulfonyl)-phenoxy)-3-oxoisoindoline-5-carboxamide]: for the setting “1 mM ATP, room temperature”, the 50% effective concentration (EC50) came to 6.4 µM. Also, under setting [2], the activation at 10 µM was determined as 73.1%. The Emax (1 mM ATP) was 90%.

`Cn1ccc(NC(=O)c2cc(OCc3ccccc3)c3c(c2)C(=O)N(C2CC2)C3)n1` [Example 377, 7-(Benzyloxy)-2-cyclopropyl-N-(1-methyl-1H-pyrazol-3-yl)-3-oxoisoindoline-5-carboxamide]: the activation at 10 µM under setting [2] was found to be 25.6%.

Take `Cc1ccc(NC(=O)c2cc(OCc3ccccc3)c3c(c2)C(=O)N(C2CC2)C3)nc1` [Example 378, 7-(Benzyloxy)-2-cyclopropyl-N-(5-methylpyridin-2-yl)-3-oxoisoindoline-5-carboxamide]: the activation at 10 µM under setting [2] is -1.85%.

As for `CCN1Cc2c(Oc3ccc(S(C)(=O)=O)cc3)cc(C(=O)Nc3ccc(C)cn3)cc2C1=O` [Example 379, 2-Ethyl-N-(5-methylpyridin-2-yl)-7-(4-(methylsulfonyl)-phenoxy)-3-oxoisoindoline-5-carboxamide], where the note is “1 mM ATP, room temperature”, the EC50 stood at 4.5 µM. Moreover, under setting [2], the activation at 10 µM turned out to be 74.1%. Further, the Emax (1 mM ATP) amounted to 98%.

Take `CCN1Cc2c(Oc3ccc(S(C)(=O)=O)cc3)cc(C(=O)Nc3ccn(C)n3)cc2C1=O` [Example 380, 2-Ethyl-N-(1-methyl-1H-pyrazol-3-yl)-7-(4-(methylsulfonyl)-phenoxy)-3-oxoisoindoline-5-carboxamide]: the EC50 (1 mM ATP, room temperature) was over 10 µM. The activation at 10 µM under setting [2] stood at 67.9%.

`Cc1ccc(NC(=O)c2cc(Oc3ccc(S(C)(=O)=O)cc3)c3c(c2)C(=O)N(CC(C)C)C3)nc1` [Example 381, 2-Isobutyl-N-(5-methylpyridin-2-yl)-7-(4-(methylsulfonyl)-phenoxy)-3-oxoisoindoline-5-carboxamide]: the EC50 (1 mM ATP, room temperature) is 3 µM. Besides, the activation at 10 µM under setting [2] came to 81%. In addition, the Emax (1 mM ATP) was 132%.

With `CC(C)CN1Cc2c(Oc3ccc(S(C)(=O)=O)cc3)cc(C(=O)Nc3ccn(C)n3)cc2C1=O` [Example 382, 2-Isobutyl-N-(1-methyl-1H-pyrazol-3-yl)-7-(4-(methylsulfonyl)-phenoxy)-3-oxoisoindoline-5-carboxamide], the EC50 (1 mM ATP, room temperature) amounted to 9.3 µM. The activation at 10 µM under setting [2] came to 82%. Moreover, the Emax (1 mM ATP) was 156%.

Consider `Cc1ccc(NC(=O)c2cc(Oc3ccc(S(C)(=O)=O)cc3)c3c(c2)C(=O)N(C(C)C)C3)nc1` [Example 383, 2-Isopropyl-N-(5-methylpyridin-2-yl)-7-(4-(methylsulfonyl)-phenoxy)-3-oxoisoindoline-5-carboxamide], for which the activation at 10 µM under setting [2] is 32.6%.

Regarding `CC(C)N1Cc2c(Oc3ccc(S(C)(=O)=O)cc3)cc(C(=O)Nc3ccn(C)n3)cc2C1=O` [Example 384, 2-Isopropyl-N-(1-methyl-1H-pyrazol-3-yl)-7-(4-(methylsulfonyl)-phenoxy)-3-oxoisoindoline-5-carboxamide], the activation at 10 µM under setting [2] is 33.2%.

On to `Cc1ccc(NC(=O)c2cc(Oc3ccc(S(C)(=O)=O)cc3)c3c(c2)C(=O)N(C2CC2)C3)nc1` [Example 385, 2-Cyclopropyl-N-(5-methylpyridin-2-yl)-7-(4-(methylsulfonyl)-phenoxy)-3-oxoisoindoline-5-carboxamide], for which the EC50 (1 mM ATP, room temperature) was found to be 4.5 µM. The activation at 10 µM under setting [2] is 93.2%. Besides, under “1 mM ATP”, the Emax turned out to be 107%.

On to `Cn1ccc(NC(=O)c2cc(Oc3ccc(S(C)(=O)=O)cc3)c3c(c2)C(=O)N(C2CC2)C3)n1` [Example 386, 2-Cyclopropyl-N-(1-methyl-1H-pyrazol-3-yl)-7-(4-(methylsulfonyl)-phenoxy)-3-oxoisoindoline-5-carboxamide], for which the EC50 (1 mM ATP, room temperature) is over 10 µM. Further, the activation at 10 µM under setting [2] is 78.8%.

As to `COCCN1Cc2c(Oc3ccc(S(C)(=O)=O)cc3)cc(C(=O)Nc3ccc(C)cn3)cc2C1=O` [Example 387, 2-(2-Methoxyethyl)-N-(5-methylpyridin-2-yl)-7-(4-(methylsulfonyl)-phenoxy)-3-oxoisoindoline-5-carboxamide], the EC50 (1 mM ATP, room temperature) is over 10 µM. The activation at 10 µM under setting [2] is 42.9%.

`COCCN1Cc2c(Oc3ccc(S(C)(=O)=O)cc3)cc(C(=O)Nc3ccn(C)n3)cc2C1=O` [Example 388, 2-(2-Methoxyethyl)-N-(1-methyl-1H-pyrazol-3-yl)-7-(4-(methylsulfonyl)-phenoxy)-3-oxoisoindoline-5-carboxamide]: the activation at 10 µM under setting [2] is 39.7%.

For `CC(C)CN1CCc2c(Oc3ccc(S(C)(=O)=O)cc3)cc(C(=O)Nc3ccn(C)n3)cc2C1=O` [Example 389, 2-Isobutyl-N-(1-methyl-1H-pyrazol-3-yl)-5-[4-(methylsulfonyl)-phenoxy]-1-oxo-1,2,3,4-tetrahydroisoquinoline-7-carboxamide], the activation at 10 µM under setting [2] was determined as 32.9%.

As to `Cc1ccc(NC(=O)c2cc(Oc3ccc(S(C)(=O)=O)cc3)c3c(c2)C(=O)N(C)CC3)nc1` [Example 390, 2-Methyl-N-(5-methylpyridin-2-yl)-5-(4-(methylsulfonyl)-phenoxy)-1-oxo-1,2,3,4-tetrahydroisoquinoline-7-carboxamide], the activation at 10 µM under setting [2] was found to be 28.9%.

`Cc1ccc(NC(=O)c2cc(Oc3ccc(S(C)(=O)=O)cc3)c3c(c2)C(=O)N(CC(C)C)CC3)nc1` [Example 391, 2-Isobutyl-N-(5-methylpyridin-2-yl)-5-(4-(methylsulfonyl)-phenoxy)-1-oxo-1,2,3,4-tetrahydroisoquinoline-7-carboxamide]: the EC50 (1 mM ATP, room temperature) is over 10 µM. In addition, the activation at 10 µM under setting [2] was found to be 45.2%.

With `CC(C)CN1CCc2c(Oc3ccc(C(=O)N(C)C)c(F)c3)cc(C(=O)Nc3ccn(C)n3)cc2C1=O` [Example 392, 5-(4-(Dimethylcarbamoyl)-3-fluorophenoxy)-2-isobutyl-N-(1-methyl-1H-pyrazol-3-yl)-1-oxo-1,2,3,4-tetrahydroisoquinoline-7-carboxamide], where the note is “1 mM ATP, room temperature”, the EC50 is over 10 µM. Also, the activation at 10 µM under setting [2] stood at 48.6%.

Turning to `Cc1ccc(NC(=O)c2cc(Oc3ccc(S(C)(=O)=O)cc3)c3ccn(C)c(=O)c3c2)nc1` [Example 394, 2-Methyl-N-(5-methylpyridin-2-yl)-5-(4-(methylsulfonyl)-phenoxy)-1-oxo-1,2-dihydroisoquinoline-7-carboxamide], under setting [2], the activation at 10 µM was determined as 32%.

For orientation: EC50 means the concentration needed to bring the measured effect to its halfway point.
